{
  "source": "ChEMBL document CHEMBL2074562",
  "about": "“Substrate specificity of the rat liver Na(+)-bile salt cotransporter in Xenopus laevis oocytes and in CHO cells” (Am J Physiol, 1998)",
  "assay_type_in_all_cases": "functional, cell-based",
  "settings_in_all_cases": "hamster",
  "key": {"[1]": {"biological_target": "T1, Hepatic sodium/bile acid cotransporter (Rattus norvegicus, UniProt P26435)", "T1 sequence (P26435 whole entry)": "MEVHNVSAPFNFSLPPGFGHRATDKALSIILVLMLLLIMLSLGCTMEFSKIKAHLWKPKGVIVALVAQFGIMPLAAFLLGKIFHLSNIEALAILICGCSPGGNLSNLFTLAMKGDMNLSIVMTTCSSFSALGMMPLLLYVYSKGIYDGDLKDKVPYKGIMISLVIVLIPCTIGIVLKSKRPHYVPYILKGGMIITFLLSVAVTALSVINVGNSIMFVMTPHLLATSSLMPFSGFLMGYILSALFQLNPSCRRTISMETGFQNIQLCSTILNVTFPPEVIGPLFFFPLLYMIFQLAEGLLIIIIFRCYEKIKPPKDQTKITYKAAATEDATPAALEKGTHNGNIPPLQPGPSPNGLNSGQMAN", "assay": "TP_TRANSPORTER: inhibition of Taurocholate uptake (Taurocholate: 2.5 uM, E1S: 200 uM) in Ntcp-expressing CHO cells"}, "[2]": {"biological_target": "T1, Hepatic sodium/bile acid cotransporter", "assay": "TP_TRANSPORTER: inhibition of Taurocholate uptake (Taurocholate: 2.5 uM, Progesterone: 200 uM) in Ntcp-expressing CHO cells"}, "[3]": {"biological_target": "T1, Hepatic sodium/bile acid cotransporter", "assay": "TP_TRANSPORTER: inhibition of Taurocholate uptake (Taurocholate: 2.5 uM, Estradiol-3-sulfate: 68 uM) in Ntcp-expressing CHO cells"}, "[4]": {"biological_target": "T1, Hepatic sodium/bile acid cotransporter", "assay": "TP_TRANSPORTER: inhibition of Taurocholate uptake (Taurocholate: 2.5 uM, Testosterone: 200 uM) in Ntcp-expressing CHO cells"}},
  "data": [
    {"smiles": "C[C@]12CC[C@@H]3c4ccc(OS(=O)(=O)O)cc4CC[C@H]3[C@@H]1CCC2=O", "note": "[ESTRONE SULFURIC ACID]", "values": [
      {"measurement": "Activity", "setting": "[1]", "result": "inhibitor [(at a rough estmate) 30 % of control]"}
    ]},
    {"smiles": "CC(=O)[C@H]1CC[C@H]2[C@@H]3CCC4=CC(=O)CC[C@]4(C)[C@H]3CC[C@]12C", "note": "[PROGESTERONE]", "values": [
      {"measurement": "Activity", "setting": "[2]", "result": "inhibitor [(at a rough estmate) 70 % of control]"}
    ]},
    {"smiles": "C[C@]12CC[C@@H]3c4ccc(OS(=O)(=O)O)cc4CC[C@H]3[C@@H]1CC[C@@H]2O", "values": [
      {"measurement": "Activity", "setting": "[3]", "result": "inhibitor [(at a rough estmate) 5 % of control]"}
    ]},
    {"smiles": "C[C@]12CC[C@H]3[C@@H](CCC4=CC(=O)CC[C@@]43C)[C@@H]1CC[C@@H]2O", "note": "[TESTOSTERONE]", "values": [
      {"measurement": "Activity", "setting": "[4]", "result": "inhibitor [(at a rough estmate) 50 % of control]"}
    ]}
  ]
}
